Measured values from patent publication US7348306B2, “Composition for promoting lacrimal secretion” (Fuso Pharmaceutical Industries, Ltd., priority 1999, dated 2008).
Where no end group is shown, it is not given here.

Tested on: rat lacrimal secretion
Assay: Rat lacrimal secretion in vivo, Schirmer test paper, after intravenous administration of PAR-associated peptides
Conditions: male Wistar rat
Method: An amount of lacrimal fluid may be measured according to the known method such as a method of Iga et al. using a rat (Iga, Y. et al., Jpn. J. Pharmacol., 78, 373-80, 1998). In particular, a rat is anesthetized with pentobarbital (50 mg/kg, intraabdominal administration), and a paper with 2 mm width for testing the human lacrimal secretion function, the Schirmer test paper (Showa Yakuhin Kako Co., Ltd.) is inserted into a lower eyelid of the rat. After a period of time fixed has passed, the test paper is removed, and a length of the wetted portion of the test paper is measured using a caliper square.
Male Wistar-line rat at 6 weeks of age was used in experiments. Each animal was housed for one week under the environment of room temperature of 23±2° C., a humidity of 50±5% and a 12 hours light/dark cycle (light: 07:00-19:00) and, thereafter, it was subjected to experiments. During the housing and experiment period, the animal was fed a solid chow and water ad lib.
Four animals were used in Examples 3-4, and the results thereof are shown in the mean±S.E.M. The test of significance was performed according to a Tukey's multiple comparison test.
An amount of rat lacrimal fluid was measured according to the method of Iga et al. (Iga, Y. et al., Jpn. J. Pharmacol., 78, 373-80, 1998). That is, the rat was anesthetized with pentobarbital (50 mg/kg, intraabdominal administration), and a paper with 2 mm width for testing human lacrimal secretion function, the Schirmer test paper (Showa Yakuhin Kako Co., Ltd.) was inserted into a lower eyelid of the rat. After the period of time fixed has passed, the test paper was removed, and a length of a wetted portion of the test paper was measured using a caliper square. An amount of lacrimal fluid was measured at 1, 2, 4, 6, 8 and 10 minutes after intravenous administration of a solvent or PAR-associated peptides.
An amount of lacrimal fluid was measured as described in Example 3.

[1] = 5 μmol/kg intravenously, peptide alone, Example 3 (FIG. 1)

Substance | effect on rat lacrimal secretion (5 μmol/kg intravenously, Example 4 (FIG. 2), vs solvent-administrated group) | effect on lacrimal secretion (length of wetted portion of Schirmer test paper) [1] | time of peak of lacrimal secretion promotion after intravenous administration [1] | dose-dependency of rat lacrimal secretion promoting action (1 to 5 μmol/kg intravenously, Example 4 (FIG. 2), vs solvent) | lacrimal secretion 8 and 10 minutes after combined treatment with amastatine, as compared with SLp-NH2 alone (SLp-NH2 5 μmol/kg i.v. with amastatine 2.5 μmol/kg i.v. 1 minute before, P<0.01 vs SLp-NH2 (Tukey test)) | persistence of lacrimal secretion promoting action in combined treatment with amastatine (SLp-NH2 5 μmol/kg i.v. with amastatine 2.5 μmol/kg i.v. 1 minute before, compared with SLp-NH2 alone)
Leu-Arg-Gly-Ile-Leu-Ser-NH2 (LRGILS-NH2) [LRp-NH2, designed control peptide, C-terminal amidated, reference compound] | no effect |  |  |  |  | 
Ser-Leu-Ile-Gly-Arg-Leu-NH2 (SLIGRL-NH2) [SLp-NH2] |  | significant promotion of lacrimal secretion | 1 min | promoted the rat lacrimal secretion in doses of ranging from 1 to 5 μmol/kg in a dose-dependent manner | significant promotion of lacrimal secretion | more persistent than that of SLp-NH2 alone
